# Measured values from publication PMC6934184, “Selective DNA-PKcs inhibition extends the therapeutic index of localized radiotherapy and chemotherapy” (The Journal of Clinical Investigation, 2019).
# Target: T1, PRKD2 (PKD2) (Homo sapiens, UniProt Q9BZL6)
# T1 construct: purchased Thermo Fisher Scientific (Life Technologies) SelectScreen
# Assay: SelectScreen Z'LYTE
# Assay type: biochemical
# Method in brief: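 SelectScreen broad panel; activity (Z'LYTE, Adapta) plus binding formats. ATP: Km app for CSF1R Z'LYTE; 10 for CAMK1 Adapta. Readout = % per kinase.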
# T1 sequence (Q9BZL6 whole entry): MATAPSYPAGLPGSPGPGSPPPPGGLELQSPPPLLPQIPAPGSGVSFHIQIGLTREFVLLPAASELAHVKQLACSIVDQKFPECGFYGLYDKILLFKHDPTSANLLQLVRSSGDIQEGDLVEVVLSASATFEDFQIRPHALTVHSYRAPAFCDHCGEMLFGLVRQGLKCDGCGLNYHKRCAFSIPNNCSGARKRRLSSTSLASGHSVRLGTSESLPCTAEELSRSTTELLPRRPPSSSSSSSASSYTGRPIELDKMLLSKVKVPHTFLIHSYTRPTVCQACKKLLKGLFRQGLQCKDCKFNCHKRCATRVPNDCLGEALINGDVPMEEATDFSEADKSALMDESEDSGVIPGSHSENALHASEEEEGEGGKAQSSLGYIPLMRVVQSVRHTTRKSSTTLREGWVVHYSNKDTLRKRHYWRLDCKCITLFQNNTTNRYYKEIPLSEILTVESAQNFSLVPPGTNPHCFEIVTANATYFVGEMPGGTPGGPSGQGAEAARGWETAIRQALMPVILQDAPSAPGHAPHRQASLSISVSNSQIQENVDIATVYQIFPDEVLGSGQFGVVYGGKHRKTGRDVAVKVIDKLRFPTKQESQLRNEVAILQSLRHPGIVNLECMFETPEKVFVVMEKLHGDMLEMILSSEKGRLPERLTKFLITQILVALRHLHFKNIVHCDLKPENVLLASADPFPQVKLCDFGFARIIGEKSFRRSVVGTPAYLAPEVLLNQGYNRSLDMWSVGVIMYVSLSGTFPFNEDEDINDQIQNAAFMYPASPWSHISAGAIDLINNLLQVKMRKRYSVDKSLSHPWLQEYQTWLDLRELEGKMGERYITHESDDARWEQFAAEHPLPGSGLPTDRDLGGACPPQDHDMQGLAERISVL
compound,measurement,value
CN(C(=O)CN1CCOCC1)c1ccc2sc3c(-c4cccc5c(=O)cc(N6CC7CCC(C6)O7)oc45)cccc3c2c1 [NU5455],inhibition at 1 µM,-9.1%
